# Data reported in patent US10961215B2, “N-aryl and N-heteroaryl piperidine derivatives as liver X receptor beta agonists, compositions, and their use” (Merck Sharp & Dohme Corp., priority 2016, dated 2021).
# Tests used:
# [1] = target: T1, GST tagged LXRbeta LBD (ligand binding domain) (Homo sapiens, UniProt P55055); assay: LanthaScreen TR-FRET Liver X Receptor Coactivator Assay, LXR beta-LBD (co-activator recruitment; IP and % Emax relative to T0901317); format: biochemical; details: for EC50: Inflection Point of co-activator recruitment, LXR beta-LBD, TR-FRET; for Emax: efficacy at max dose in relation to reference T0901317, LXR beta-LBD, read-out: LXR beta actiivty at max dose (%)
# T1 construct: purchased Invitrogen pv4658.pps
# T1 sequence (P55055 222-460 limits assumed): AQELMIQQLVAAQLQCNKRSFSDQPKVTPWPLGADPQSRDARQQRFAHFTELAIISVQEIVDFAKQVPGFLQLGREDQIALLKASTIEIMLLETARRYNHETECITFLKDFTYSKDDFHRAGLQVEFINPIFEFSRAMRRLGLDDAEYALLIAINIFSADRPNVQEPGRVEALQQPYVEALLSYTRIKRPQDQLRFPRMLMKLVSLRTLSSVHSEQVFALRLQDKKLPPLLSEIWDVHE
# Description: (§1) Potency (Inflection Point, IP) and efficacy (Emax) are evaluated via compound-induced co-activator recruitment to glutathione-S-transferase (GST) tagged LXRbeta and LXRalpha LBD (ligand binding domain) proteins in relation to reference dual agonist compound T0901317 (N-(2,2,2-Trifluoroethyl)-N-[4-[2,2,2-trifluoro-1-hydroxy-1-(trifluoromethyl)ethyl]phenyl]benzenesulfonamide) using the LanthaScreen™ TR-FRET Liver X Receptor Coactivator Assays according to manufacturer's instructions (Invitrogen catalog number pv4658.pps and pv4655). While running the LanthaScreen™ TR-FRET Liver X Receptor Coactivator Assay, LXR alpha-LBD or LXR beta-LBD was added to ligand test compounds followed by addition of a mixture of a fluorescein-labelled coactivator peptide and terbium-conjugated anti-GST antibody. After an incubation period at room temperature, TR-FRET (time-resolved fluorescence resonance energy transfer) was measured using a filter-based instrument capable of TR-FRET, e.g. PerkinElmer Envision.
# [2] = target: T2, GST tagged LXRalpha LBD (ligand binding domain) (Homo sapiens, UniProt Q13133); assay: LanthaScreen TR-FRET Liver X Receptor Coactivator Assay, LXR alpha-LBD (co-activator recruitment; IP and % Emax relative to T0901317); format: biochemical; details: for LXR alpha IP (nM) / EC50: Inflection Point of co-activator recruitment, LXR alpha-LBD, TR-FRET; for Emax: efficacy at max dose in relation to reference T0901317, LXR alpha-LBD, read-out: LXR alpha actiivty at max dose (%)
# T2 construct: purchased Invitrogen pv4655
# T2 sequence (Q13133 209-447 limits assumed): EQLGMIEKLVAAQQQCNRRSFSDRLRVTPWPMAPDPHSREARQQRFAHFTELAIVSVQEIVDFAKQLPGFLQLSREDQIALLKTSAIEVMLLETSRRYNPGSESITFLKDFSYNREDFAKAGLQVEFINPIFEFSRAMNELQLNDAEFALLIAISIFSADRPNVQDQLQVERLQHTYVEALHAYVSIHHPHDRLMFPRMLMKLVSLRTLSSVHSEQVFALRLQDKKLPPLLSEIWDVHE
# Description: as §1
EC50 [1] [nM],Emax [1] [%],LXR alpha IP (nM) [2],Emax [2] [%],EC50 [2] [nM],Structure (SMILES)
35,44,No IP,0,,"CN(C)C(=O)c1ccc(N2CCC(CCCN(C)C(=O)[C@](O)(c3cc(Cl)cc(Cl)c3)C(F)(F)F)CC2)nc1Cl [Example 1-37, (R)-2-chloro-6-(4-(3-(2-(3,5-dichlorophenyl)-3,3,3-trifluoro-2-hydroxy-N-methylpropanamido)propyl)piperidin-1-yl)-N,N-dimethylnicotinamide]"
13,78,,23,372,"CN(C)C(=O)c1ccc(N2CCC(CCCN(C)C(=O)[C@](O)(c3cc(F)cc(Cl)c3)C(F)(F)F)CC2)nc1Cl [Example 1-12, (R)-2-chloro-6-(4-(3-(2-(3-chloro-5-fluorophenyl)-3,3,3-trifluoro-2-hydroxy-N-methylpropanamido)propyl)piperidin-1-yl)-N,N-dimethylnicotinamide]"
168,80,,43,2610,"CN(C)C(=O)c1ccc(N2CCC(CCCN(C)C(=O)C3(C(F)(F)F)CCCO3)CC2)nc1Cl (stereo not shown) [Example 1-56, 2-chloro-N,N-dimethyl-6-(4-(3-(N-methyl-2-(trifluoromethyl)tetrahydrofuran-2-carboxamido)propyl)piperidin-1-yl)nicotinamide]"
16,37,No IP,0,,"COc1cccc([C@@](O)(C(=O)N(C)CCCC2(C)CCN(c3ccc(C(=O)N(C)C)c(Cl)n3)CC2)C(F)(F)F)c1 [Example 9-1, (R)-2-chloro-N,N-dimethyl-6-(4-methyl-4-(3-(3,3,3-trifluoro-2-hydroxy-2-(3-methoxyphenyl)-N-methylpropanamido)propyl)piperidin-1-yl)nicotinamide]"
12,58,,37,680,"COc1cccc([C@@](O)(C(=O)N(C)CC[C@H]2CC23CCN(c2ccc(C(=O)N(C)C)c(Cl)n2)CC3)C(F)(F)F)c1 [Example 7-15, 2-chloro-N,N-dimethyl-6-((R)-1-(2-((R)-3,3,3-trifluoro-2-hydroxy-2-(3-methoxyphenyl)-N-methylpropanamido)ethyl)-6-azaspiro[2.5]octan-6-yl)nicotinamide]"
1550,36,No IP,12,,"CNC(=O)c1ccc(N2CCC3(CC2)C[C@H]3CCN(C)C(=O)[C@](O)(c2cccc(OC)c2)C(F)(F)F)cc1Cl [Example 7-21, 2-chloro-N-methyl-4-((S)-1-(2-((R)-3,3,3-trifluoro-2-hydroxy-2-(3-methoxyphenyl)-N-methylpropanamido)ethyl)-6-azaspiro[2.5]octan-6-yl)benzamide]"
18,47,,21,441,"CN(C)C(=O)c1ccc(N2CCC(C)(CCCN(C)C(=O)[C@](O)(c3ccccc3)C(F)(F)F)CC2)nc1Cl [Example 9-2, (R)-2-chloro-N,N-dimethyl-6-(4-methyl-4-(3-(3,3,3-trifluroo-2-hydroxy-N-methyl-2-phenylpropanamido)propyl)piper-idin-1-yl)nicotinamide]"
235,83,,26,5220,"CN(C)C(=O)c1ccc(N2CCC(CCCNC(=O)C3(c4ccccc4)CCC3)CC2)nc1Cl [Example 5-16, 2-chloro-N,N-dimethyl-6-(4-(3-(1-phenylcyclobutane-carboxamido)propyl)piperidin-1-yl)nicotinamide]"
63,67,No IP,14,,"CN(C)C(=O)c1ccc(N2CCC(C)(CCCN(C)C(=O)[C@@]3(c4ccccc4)CCCO3)CC2)nc1Cl [Example 9-4, (S)-2-chloro-N,N-dimethyl-6-(4-methyl-4-(3-(N-methyl-2-phenyltetrahydrofuran-2-carboxamido)propyl)piperidin-1-yl)nicotinamide]"
37,86,,37,2780,"CN(C)C(=O)c1ccc(N2CCC(CCCN(C)C(=O)[C@](O)(c3cccc(O)c3)C(F)(F)F)CC2)nc1Cl [Example 1-58, (R)-2-chloro-N,N-dimethyl-6-(4-(3-(3,3,3-trifluoro-2-hdyroxy-2-(3-hydroxyphenyl)-N-methylpropanamido)propyl)piperidin-1-yl)nicotinamide]"
1010,40,,40,13200,"CN(C)C(=O)c1ccc(N2CCC(CCCNC(=O)[C@](O)(c3cccc(OC(F)(F)F)c3)C(F)(F)F)CC2)nc1Cl [Example 5-12, (R)-2-chloro-N,N-dimethyl-6-(4-(3-(3,3,3-trifluoro-2-hydroxy-2-(3-(trifluoromethoxy)phenyl)propanamido)propyl)piperidin-1-yl)nicotinamide]"
109,52,,25,775,"COc1cccc([C@@](O)(C(=O)N(C)CC[C@H]2CC23CCN(c2ccc(C(=O)NC4CC4)c(Cl)c2)CC3)C(F)(F)F)c1 [Example 7-9, 2-chloro-N-cyclopropyl-4-((R)-1-(2-((R)-3,3,3-trifluoro-2-hydroxy-2-(3-methoxyphenyl)-N-methylpropanamido)ethyl)-6-azaspiro[2.5]octan-6-yl)benzamide]"
2070,32,No IP,7,,"COc1cccc([C@@](O)(C(=O)N(C)CC[C@@H]2CC23CCN(c2ccc(C(=O)NC(C)C)c(Cl)c2)CC3)C(F)(F)F)c1 [Example 7-23, 2-chloro-N-isopropyl-4-((S)-1-(2-((R)-3,3,3-trifluoro-2-hydroxy-2-(3-methoxyphenyl)-N-methylpropanamido)ethyl)-6-azaspiro[2.5]octan-6-yl)benzamide]"
92,64,No IP,11,,"CN(C)C(=O)c1ccc(N2CCC(CCCN(C)C(=O)C3(c4ccccc4)CCCC3)CC2)nc1Cl [Example 1-42, 2-chloro-N,N-dimethyl-6-(4-(3-(N-methyl-1-phenylcyclopentanecarboxamido)pro-pyl)piperidin-1-yl)nicotinamide]"
201,82,No IP,16,,"COc1cccc([C@@](O)(C(=O)NC2(CCC3CCN(c4ccc(C(=O)N(C)C)c(Cl)n4)CC3)CC2)C(F)(F)F)c1 [Example 8-1, (R)-2-chloro-N,N-dimethyl-6-(4-(2-(1-(3,3,3-trifluoro-2-hydroxy-2-(3-methoxyphenyl)propanamido)cyclopropyl)ethyl)piperidin-1-yl)nicotinamide]"
1380,23,No IP,0,,"CC(C)=C(C(=O)N(C)CCCC1CCN(c2ccc(C(=O)N(C)C)c(Cl)n2)CC1)c1ccccc1 [Example 1-61, 2-chloro-6-(4-(3-(N,3-dimethyl-2-phenylbut-2-enamido)propyl)piperidin-1-yl)-N,N-dimethylnicotinamide]"
267,105,,23,3700,"CN(C)C(=O)c1ccc(N2CCC(CCCNC(=O)C(O)(c3ccccc3)C(F)(F)F)CC2)nc1Cl (stereo not shown) [Example 5-6, 2-chloro-N,N-dimethyl-6-(4-(3-(3,3,3-trifluoro-2-hydroxy-2-phenylpropanamido)propyl)piperidin-1-yl)nicotinamide]"
124,44,No IP,0,,"COc1cccc([C@@](O)(C(=O)N(C)C[C@@H]2C[C@@H]2CC2CCN(c3ccc(C(=O)N(C)C)c(Cl)n3)CC2)C(F)(F)F)c1 [Example 18-2, 2-chloro-N,N-dimethyl-6-(4-(((1S,2R)-2-(((R)-3,3,3-trifluoro-2-hydroxy-2-(3-methoxyphenyl)-N-methylpropanamido)methyl)cyclopropyl)methyl)piperidin-1-yl)nicotinamdie]"
271,64,No IP,0,,"COc1cccc([C@@](O)(C(=O)N(C)CCCC2CCN(c3ccc(C(=O)N(C)C)c(C)n3)CC2)C(F)(F)F)c1 [Example 2-20, (R)-N,N,2-trimethyl-6-(4-(3-(3,3,3-trifluoro-2-hydroxy-2-(3-methoxyphenyl)-N-methylpropanamido)propyl)piperidin-1-yl)nicotinamide]"
